Each compound was assayed against GST-tagged truncated human mutant G2019S LRRK2 (Homo sapiens (Human), UniProt Q5S007, G2019S) (assay: LRRK2 G2019S Km ATP LanthaScreen assay). Details: G2019S LRRK2, 134 μM ATP (Km ATP), LRRKtide substrate.
Assay type: biochemical
Procedure: Unless otherwise noted, all reactions are magnetically allowed to stir, diethyl ether used in the experiments described below is Fisher ACS certified material stabilized with BHT, and “concentrated” and/or “solvent removed under reduced pressure” means evaporating the solvent from a solution or mixture using a rotary evaporator or vacuum pump. Unless otherwise noted, flash chromatography is carried out on a Teledyne Isco (Lincoln, NE), Analogix (Burlington, WI), or Biotage (Stockholm, SWE) automated chromatography system using a commercially available cartridge as the column. Columns may be purchased from Teledyne Isco, Analogix, Biotage, Varian (Palo Alto, CA), or Supelco (Bellefonte, PA) and are usually filled with silica gel as the stationary phase. Reverse phase prep-HPLC conditions, where used, can be found at the end of each experimental section. Aqueous solutions were concentrated on a Genevac (Ipswich, ENG) or by freeze-drying/lyophilization. Unless otherwise noted, all LRRK2 pIC50 data presented in tables refers to the LRRK2 G2019S Km ATP LanthaScreen™ assay (Life Technologies Corp., Carlsbad, CA) that is described in the Biological Assay section.
The LRRK2 kinase activity reported herein as IC50 values was determined with LanthaScreen™ technology from Life Technologies Corporation (Carlsbad, CA) using GST-tagged truncated human mutant G2019S LRRK2 in the presence of the fluorescein-labeled peptide substrate LRRKtide, also from Life Technologies. The data presented for the […] depending on the specific conditions and reagents used. Assays were performed in the presence of 134 μM ATP (Km ATP). Upon completion, the assay was stopped and phosphorylated substrate detected with a terbium (Tb)-labeled anti-pERM antibody (cat. no. PV4898). The compound dose response was prepared by diluting a 10 mM stock of compound to a maximum concentration of 9.99 μM in 100% dimethylsulfoxide followed by custom fold serial dilution in dimethylsulfoxide nine times. Twenty nanoliters of each dilution was spotted via a Labcyte Echo onto a 384-well black-sided plate (Corning 3575) followed by 15 μl of a 1.25 nM enzyme solution in 1× assay buffer (50 mM Tris pH 8.5, 10 mM MgCl2, 0.01% Brij-35, 1 mM EGTA, 2 mM dithiothreitol, 0.05 mM sodium orthovanadate). Following a 15-minute incubation at room temperature, the kinase reaction was started with the addition of 5 μl of 400 nM fluorescein-labeled LRRKtide peptide substrate and 134 μM ATP solution in 1× assay buffer. The reaction was allowed to progress at ambient temperature for 90 minutes. The reaction was then stopped by the addition of 20 μl of TR-FRET Dilution Buffer (Life Technologies, Carlsbad, CA) containing 2 nM Tb-labeled anti-phospho LRRKtide antibody and 10 mM EDTA (Life Technologies, Carlsbad, CA). After an incubation of 1 h at room temperature, the plate was read on an EnVision multimode plate reader (Perkin Elmer, Waltham, MA) with an excitation wavelength of 337 nm (Laser) and a reading emission at both 520 and 495 nm. Compound IC50s were interpolated from nonlinear regression best fits of the log of the final compound concentration, plotted as a function of the 520/495-nm emission ratio using Activity base. Abase uses a 4 parameter (4P) logistic fit based on the Levenberg-Marquardt algorithm.

Sequence of GST-tagged truncated human mutant G2019S LRRK2 (Q5S007 970-2527 G2019S): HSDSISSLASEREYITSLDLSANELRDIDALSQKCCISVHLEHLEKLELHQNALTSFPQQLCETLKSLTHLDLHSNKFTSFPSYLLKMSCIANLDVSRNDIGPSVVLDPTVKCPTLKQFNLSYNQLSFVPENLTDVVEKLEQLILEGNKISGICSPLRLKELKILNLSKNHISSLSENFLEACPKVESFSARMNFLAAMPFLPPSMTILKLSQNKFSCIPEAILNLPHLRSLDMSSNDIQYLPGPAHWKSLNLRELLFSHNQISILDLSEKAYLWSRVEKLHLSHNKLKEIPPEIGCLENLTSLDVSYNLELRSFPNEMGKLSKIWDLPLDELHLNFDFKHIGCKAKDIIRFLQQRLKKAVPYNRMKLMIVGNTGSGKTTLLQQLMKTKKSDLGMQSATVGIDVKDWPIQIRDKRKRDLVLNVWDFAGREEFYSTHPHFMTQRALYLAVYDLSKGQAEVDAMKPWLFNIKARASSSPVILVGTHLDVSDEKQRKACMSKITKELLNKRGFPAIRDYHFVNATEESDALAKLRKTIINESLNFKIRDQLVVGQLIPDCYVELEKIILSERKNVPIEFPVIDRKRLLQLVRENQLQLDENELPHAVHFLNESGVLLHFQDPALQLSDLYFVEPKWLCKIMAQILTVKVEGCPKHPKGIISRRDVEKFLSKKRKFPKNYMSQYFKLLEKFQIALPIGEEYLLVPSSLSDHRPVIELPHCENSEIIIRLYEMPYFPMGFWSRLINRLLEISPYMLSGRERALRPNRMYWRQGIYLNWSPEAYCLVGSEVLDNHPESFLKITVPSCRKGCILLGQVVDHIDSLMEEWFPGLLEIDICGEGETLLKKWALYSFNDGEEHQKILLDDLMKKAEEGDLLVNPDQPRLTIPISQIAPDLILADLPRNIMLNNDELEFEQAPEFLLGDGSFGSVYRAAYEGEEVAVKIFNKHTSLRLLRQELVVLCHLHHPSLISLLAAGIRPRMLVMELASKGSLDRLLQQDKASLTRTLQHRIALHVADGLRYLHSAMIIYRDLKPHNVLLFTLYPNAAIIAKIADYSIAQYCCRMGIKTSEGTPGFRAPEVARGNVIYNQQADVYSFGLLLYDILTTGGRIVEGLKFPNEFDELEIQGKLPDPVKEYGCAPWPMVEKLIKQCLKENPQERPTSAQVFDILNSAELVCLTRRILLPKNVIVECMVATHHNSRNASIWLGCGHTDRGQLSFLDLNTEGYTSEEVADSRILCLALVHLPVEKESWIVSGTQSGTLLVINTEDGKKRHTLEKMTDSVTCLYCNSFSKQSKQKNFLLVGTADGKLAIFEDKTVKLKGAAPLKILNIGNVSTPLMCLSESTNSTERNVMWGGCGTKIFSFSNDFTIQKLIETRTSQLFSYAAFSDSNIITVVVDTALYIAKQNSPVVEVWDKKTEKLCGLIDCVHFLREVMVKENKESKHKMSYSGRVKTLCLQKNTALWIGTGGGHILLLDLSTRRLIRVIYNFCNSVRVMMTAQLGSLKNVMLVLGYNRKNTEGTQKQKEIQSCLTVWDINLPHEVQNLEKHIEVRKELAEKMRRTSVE

Question: `CC1CCOc2c(C(C)(C)C#N)nn(C3CCC3)c2Nc2ncc(C(F)(F)F)c(n2)N1` (single isomer, unassigned) [Ex-2.30, (R)- or (S)-butyl-7-methyl-10-(trifluoromethyl)-1,5,6,7,8,14-hexahydro-9,13-(azeno)pyrazolo[4,3-b][1]oxa[4,6,10]triazacyclotridecin-3-yl)-2-methylpropanenitrile] was tested. Which “LRRK2 pIC50” value did it give?
Answer: 10.03

Question: `CC(C)n1nc(C2C[C@@H]2C#N)c2c1Nc1ncc(C(F)(F)F)c(n1)N[C@@H]1COC[C@H]1CO2` (single isomer, unassigned) [Ex-2.44, (1S,2S)- or (1R,2R)-2-((10aS,13aS)-3-isopropyl-8-(trifluoromethyl)-3,4,10a,11,13a,14-hexahydro-10H,13H-5,9-(azeno)furo[3,4-k]pyrazolo[4,3-b][1]oxa[4,6,10]triazacyclotridecin-1-yl)cyclopropane-1-carbonitrile] was tested. Which “LRRK2 pIC50” value did it give?
Answer: 8.80

Question: For `CC(C)n1nc(C2C[C@@H]2C#N)c2c1Nc1ncc(C(F)(F)F)c(n1)N[C@@H]1COC[C@H]1CO2` (single isomer, unassigned) [Ex-2.45, (1S,2S)- or (1R,2R)-2-((10aS,13aS)-3-isopropyl-8-(trifluoromethyl)-3,4,10a,11,13a,14-hexahydro-10H,13H-5,9-(azeno)furo[3,4-k]pyrazolo[4,3-b][1]oxa[4,6,10]triazacyclotridecin-1-yl)cyclopropane-1-carbonitrile], which “LRRK2 pIC50” value is on record?
Answer: 8.32

Question: How did the “LRRK2 pIC50” value turn out when `N#CC1CC1c1nn(C2CCC2)c2c1OC[C@@H]1COC[C@H]1Nc1nc(ncc1C(F)(F)F)N2` (single isomer, unassigned) [Ex-2.50, (1R,2R)- or (1S,2S)-2-((10aS,13aS)-3-cyclobutyl-8-(trifluoromethyl)-3,4,10a,11,13a,14-hexahydro-10H,13H-5,9-(azeno)furo[3,4-k]pyrazolo[4,3-b][1]oxa[4,6,10]triazacyclotridecin-1-yl)cyclopropane-1-carbonitrile] was run?
Answer: 9.77

Question: How did the “LRRK2 pIC50” value turn out when `N#CC1CC1c1nn(C2CCC2)c2c1OC[C@@H]1COC[C@H]1Nc1nc(ncc1C(F)(F)F)N2` (single isomer, unassigned) [Ex-2.51, (1R,2R)- or (1S,2S)-2-((10aS,13aS)-3-cyclobutyl-8-(trifluoromethyl)-3,4,10a,11,13a, 14-hexahydro-10H,13H-5,9-(azeno)furo[3,4-k]pyrazolo[4,3-b][1]oxa[4,6,10]triazacyclotridecin-1-yl)cyclopropane-1-carbonitrile] was run?
Answer: 9.05

Question: `Cc1nn(C2CCC2)c2c1OC1COC[C@H]1CNc1nc(ncc1C(F)(F)F)N2` (single isomer, unassigned) [Ex-2.81, (11aR,14aS) or (11aS,14aR)-3-cyclobutyl-1-methyl-8-(trifluoromethyl)-3,4,10,11,11a,12,14,14a-octahydro-5,9-(azeno)furo[3,4-1]pyrazolo[4,3-b][1]oxa[4,6,10]triazacyclotridecine] was tested. Which “LRRK2 pIC50” value did it give?
Answer: 5.99

Question: With `Cc1nn(C2CCC2)c2c1OC1COC[C@H]1CNc1nc(ncc1C(F)(F)F)N2` (single isomer, unassigned) [Ex-2.82, (11aR,14aS) or (11aS,14aR)-3-cyclobutyl-1-methyl-8-(trifluoromethyl)-3,4,10,11,11a,12,14,14a-octahydro-5,9-(azeno)furo[3,4-1]pyrazolo[4,3-b][1]oxa[4,6,10]triazacyclotridecine] as the compound, how does the “LRRK2 pIC50” value read?
Answer: 9.60

Question: How did the “LRRK2 pIC50” value turn out when `O[C@@H]1COCC1n1nc(C2CC2)c2c1OC[C@H]1CC[C@@H]1Nc1nc(ncc1C(F)(F)F)N2` (single isomer, unassigned) [Ex-6.1, (3R,4S)-4-((10aR,12aR)- or (3R,4S)-4-((10aS,12aS)- or (3S,4R)-4-((10aR,12aR)- or (3S,4R)-4-((10aR,12aR)-3-cyclopropyl-8-(trifluoromethyl)-10,10a,11,12,12a,13-hexahydro-5,9-(azeno)cyclobuta[k]pyrazolo[3,4-b][1]oxa[4,6,10]triazacyclotridecin-1 (4H)-yl)tetrahydrofuran-3-ol] was run?
Answer: 7.94

Question: With `O[C@@H]1COCC1n1nc(C2CC2)c2c1OC[C@H]1CC[C@@H]1Nc1nc(ncc1C(F)(F)F)N2` (single isomer, unassigned) [Ex-6.2, (3R,4S)-4-((10aR,12aR)- or (3R,4S)-4-((10aS,12aS)- or (3S,4R)-4-((10aR,12aR)- or (3S,4R)-4-((10aR,12aR)-3-cyclopropyl-8-(trifluoromethyl)-10,10a,11,12,12a,13-hexahydro-5,9-(azeno)cyclobuta[k]pyrazolo[3,4-b][1]oxa[4,6,10]triazacyclotridecin-1 (4H)-yl)tetrahydrofuran-3-ol] as the compound, how does the “LRRK2 pIC50” value read?
Answer: >10.09

Question: Which “LRRK2 pIC50” value does the source give for `O[C@@H]1COCC1n1nc(C2CC2)c2c1OC[C@H]1CC[C@@H]1Nc1nc(ncc1C(F)(F)F)N2` (single isomer, unassigned) [Ex-6.3, (3R,4S)-4-((10aR,12aR)- or (3R,4S)-4-((10aS,12aS)- or (3S,4R)-4-((10aR,12aR)- or (3S,4R)-4-((10aR,12aR)-3-cyclopropyl-8-(trifluoromethyl)-10,10a,11,12,12a,13-hexahydro-5,9-(azeno)cyclobuta[k]pyrazolo[3,4-b][1]oxa[4,6,10]triazacyclotridecin-1 (4H)-yl)tetrahydrofuran-3-ol] here?
Answer: 7.29

Question: Which “LRRK2 pIC50” value does the source give for `O[C@@H]1COCC1n1nc(C2CC2)c2c1OC[C@H]1CC[C@@H]1Nc1nc(ncc1C(F)(F)F)N2` (single isomer, unassigned) [Ex-6.4, (3R,4S)-4-((10aR,12aR)- or (3R,4S)-4-((10aS,12aS)- or (3S,4R)-4-((10aR,12aR)- or (3S,4R)-4-((10aR,12aR)-3-cyclopropyl-8-(trifluoromethyl)-10,10a,11,12,12a,13-hexahydro-5,9-(azeno)cyclobuta[k]pyrazolo[3,4-b][1]oxa[4,6,10]triazacyclotridecin-1 (4H)-yl)tetrahydrofuran-3-ol] here?
Answer: >10.09

Question: For `O[C@H]1CC[C@@H]1n1nc(C2CC2)c2c1OC[C@@H]1COC[C@H]1Nc1nc(ncc1C(F)(F)F)N2` (single isomer, unassigned) [Ex-6.8, (1R,2R)- or (1S,2S)-2-((10aS,13aS)-3-cyclopropyl-8-(trifluoromethyl)-10a,11,13a,14-tetrahydro-10H,13H-5,9-(azeno)furo[3,4-k]pyrazolo[3,4-b][1]oxa[4,6,10]triazacyclotridecin-1(4H)-yl)cyclobutan-1-ol], which “LRRK2 pIC50” value is on record?
Answer: >10.09

Same assay, conditions: G2019S LRRK2, 134 μM ATP (Km ATP), LRRKtide substrate; read-out: LRRK2 pIC50 (converted)

Question: How did the IC50 turn out when `COC1CC(n2nc(C)c3c2Nc2ncc(C(F)(F)F)c(n2)NC2COCC2CO3)C1` (single isomer, unassigned) [Ex-2.31, (10aS,13aS)- or (10aR,13aR)-3-((1R,3S)-3-methoxycyclobutyl)-1-methyl-8-(trifluoromethyl)-3,4,10a,11,13a,14-hexahydro-10H,13H-5,9-(azeno)furo[3,4-k]pyrazolo[4,3-b][1]oxa[4,6,10]triazacyclotridecine] was run?
Answer: 288 nM

Question: Which IC50 does the source give for `COC1CC(n2nc(C)c3c2Nc2ncc(C(F)(F)F)c(n2)NC2COCC2CO3)C1` (single isomer, unassigned) [Ex-2.32, (10aS,13aS)- or (10aR,13aR)-3-((1R,3S)-3-methoxycyclobutyl)-1-methyl-8-(trifluoromethyl)-3,4,10a,11,13a,14-hexahydro-10H,13H-5,9-(azeno)furo[3,4-k]pyrazolo[4,3-b][1]oxa[4,6,10]triazacyclotridecine] here?
Answer: 0.0912 nM

Reference: patent publication US20250313575A1, “MACROCYCLES AS LRRK2 INHIBITORS, PHARMACEUTICAL COMPOSITIONS, AND USES THEREOF” (Merck Sharp & Dohme LLC, priority 2022, published 2025)
